Earlier results as cited in patent publication US20140287011A1, “ARTHROPOD PEST CONTROL COMPOSITION” (SUMITOMO CHEMICAL COMPANY, LIMITED, priority 2011, published 2014).

Details: water at 20° C.

CCOc1cc(C(C)(C)C)ccc1C1COC(c2c(F)cccc2F)=N1 (stereo not shown) [the present oxazole compound, 2-(2,6-difluorophenyl)-4-[4-(1,1-dimethylethyl)-2-ethoxyphenyl]-4,5-dihydrooxazole]
solubility: 75.4 pg per 1 liter
